# Measured values: patent US9212204B2, “Treatment of rett syndrome using glycyl-L-2-methylprolyl-L-glutamic acid” (priority 2011, dated 2015)
# Like-named read-outs stand apart in the source and are kept apart here. Non-standard residues stand in square brackets, D forms with d. Residues, ends and D or L forms follow the SMILES beside them. αMeP = C[C@@]1(C(=O)O)CCCN1
# Experiments:
# [1] = system: hemizygous MeCP2(1lox) male mice; format: in vivo; settings: for time to 50 percent death: 20 mg/kg/day i.p.
# From the text: To determine whether G-2-MePE treatment can impact the development and progression of Rett Syndrome in a murine model of the disorder, we used hemizygous MeCP2(1lox) male mice. The MeCP2 knock-out (MeCP2-KO) mouse system is widely accepted in the art as closely mimicking the range and the severity of physiological and neurological abnormalities characteristic of the human disorder, Rett Syndrome.
# [2] = system: slices of hippocampus from MeCP2 deficient mice; assay: Hippocampal long-term potentiation in MeCP2 deficient mice; format: in vivo, mouse; settings: 20 mg/kg/day i.p. from week 4 to week 9; vs saline
# From the text: MeCP2 deficient mice have been previously reported to suffer from functional and ultrastructural synaptic dysfunction, significant impairment of hippocampus-dependent memory and hippocampal long-term potentiation (LTP) (Moretti et al. The Journal of Neuroscience. 2006. 26(1):319-327). To test the effects of the G-2-MePE treatment on synaptic function in the RTT model we compared hippocampal LTP in both vehicle and G-2-MePE treated animals at 9 weeks of age. To do so, we measured the slope of the fEPSP as a % of baseline potential in neurons in slices of hippocampus from MeCP2 deficient mice treated with either saline or G-2-MePE (FIG. 23).
# [3] = system: layer 5 cortical neurons of MeCP2-/y mice; assay: Whole-cell recordings of spontaneous EPSCs in acute brain slices; format: in vivo, mouse; settings: 20 mg/kg i.p. daily P15 to P28-P32; vs MeCP2-/y mice treated with vehicle
# Description: For the survival measurements, the nocturnal activity analysis and the immunoblot analysis, G-2-MePE (synthesised Albany Molecular Research Inc. (Albany, N.Y.) and supplied by Neuren Pharmaceuticals Limited) is administered daily via intra-peritoneal injections (20 mg/kg, vehicle=saline, 0.01% BSA). The treatment starts at PI 5 and is maintained throughout the course of the experiments. For intracellular physiology experiments, the mice are injected daily with G-2-MePE (20 mg/kg body weight, vehicle=saline, 0.01% BSA) for 2 weeks, from P15 to P28-P32 when they are used for acute slice preparation. For optical imaging experiments, mice are injected with G-2-MePE (20 mg/kg body weight, vehicle=saline, 0.01% BSA) daily from the day of the lid suture to the day of imaging. […]
# Borosilicate pipettes (3-5 MΩ, WP1) are pulled using a Sutter P-80 puller (Sutter Instruments). Cells are visualized with an Achroplan 40× water-immersion lens with infrared-DIC optics (Zeiss) and detected with an infrared camera (Hamamatsu) projecting to a video monitor. […] Then in current clamp ˜10 pulses (500 ms, 40-140 pA at 10 pA increments), are applied to quantify evoked firing rates and cellular excitability. […] Analysis is performed using a custom software package written in Matlab, with all events detected according to automated thresholds and blindly verified for each event individually by the experimenter. […]
# [4] = system: neurons in the CA3 region of the hippocampus; assay: Neuron soma size in the hippocampus; format: in vivo, mouse
# Description: We also measure the effect of G-2-MePE treatment on neuron soma size in the hippocampus. Mice are treated with G-2-MePE as described above for locomotor activity.
smiles,measurement,setting,value
"C[C@@]1(C(=O)N[C@@H](CCC(=O)O)C(=O)O)CCCN1C(=O)CN [Example G-2-MePE, Glycyl-L-2-methylprolyl-L-glutamic acid] (H-Gly-[αMeP]-Glu-OH)",time to 50 percent death,[1]; data initially presented,16 weeks
same,time to 50 percent death,[1]; re-examination with control group re-run,16 weeks
same,safety in mecp2 mice,"[1]; mouse, in vivo",No safety concerns
same,slope of fEPSP (hippocampal LTP),[2],increased
same,spontaneous EPSC amplitude,[3],significantly larger
same,average soma size,[4]; KO animals,increases
same,soma size,[4]; wild type animals,little or no effect
